In brackets after ≈: the same amount, converted by molar mass. Where a SMILES comes first, the peptide text is derived from it. Bridges are numbered along the chain shown (N, C = ends).
Tests used:
Vibrio Parahaemolyticus = assay: MIC, two-fold broth microdilution; assay type: cell-based; details: Aquatic pathogenic bacteria; two-fold broth microdilution, 37 °C, 18 h; mean of three independent experiments in duplicates
How it was run: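 Two-fold broth microdilution in Mueller-Hinton broth: exponential-phase microbes were diluted to 10^6 CFU/mL, then mixed 1:1 with serially diluted peptide. Plates were shaken at 37 °C for 18 h and read at A595. MIC is the lowest concentration with no growth, averaged over three independent experiments.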

E. coli 08040726 = assay: Bacterial killing kinetic assay, colony counting; assay type: cell-based
Experimental: The bacterial killing kinetics of the hybrid peptides against E. coli 08040726 was determined by counting the changes in the viable bacterial clones after peptide treatment. The experiment was carried out according to the method described previously with minor modifications. Fresh colonies of the bacteria were incubated in MH broth at 37 °C for 12 h and diluted to 10^6 CFU/in fresh MH broth. The hybrid peptide was added to the bacterial suspension with a final concentration of 1x and 5x corresponding MICs, and incubated at 37 °C for 0, 10, 20, 30, 45, 60, 90, 120, and 180 mins. At each time point, aliquots (50 μL) were removed and diluted with fresh MH broth for 1000 times. […] of the dilutions were coated on MH agar plates, incubated overnight at 37 °C, and the viable colonies were counted. Ampicillin was used as positive control and sterile deionized water was used as negative control.

E. coli ATCC25922 [1] = assay: Salt stability of antimicrobial activity; assay type: cell-based; details: 1 × MIC, Fig. 3A
Experimental: To determine the effect of salt on the antimicrobial activity of the parental and hybrid peptides, the bacteria colonies survived 1 × MIC of peptide in the presence of salt were counted. Briefly, E. coli ATCC25922 were diluted into decent concentration and mixed with each kind of peptide solution of 1 × MIC supplemented with NaCl (0, 50, 100, 150, 200 and 400 mM), respectively. […] The salt stability of the peptides was assessed by the number of colonies.

E. coli ATCC25922 [2] = assay: Thermal stability of antimicrobial activity; assay type: physicochemical; details: 2 mg/mL in water, up to 96 h, E. coli ATCC25922, 1 × MIC, Fig. 3D
Experimental: Thermal stability of Hc-3 and hybrid peptides was examined according to the method described in our previous work[31]. Peptide was dissolved in sterile deionized water to a final concentration of 2 mg/mL, and incubated at 37 °C for 0–96 h. At each time point, the bacteria colonies of E. coli ATCC25922 survived 1 × MIC were measured.

In the case of `CC[C@H](C)[C@@H]1NC(=O)[C@H](CO)NC(=O)[C@H](CCCCN)NC(=O)[C@H]([C@@H](C)O)NC(=O)[C@H](Cc2c[nH]c3ccccc23)NC(=O)[C@@H](N)CSSC[C@@H](C(=O)N[C@@H](CCCCN)C(=O)N[C@@H](Cc2ccccc2)C(=O)N[C@@H](Cc2ccccc2)C(=O)N[C@@H](CCCCN)C(=O)N[C@@H](CCCNC(=N)N)C(=O)N[C@@H](Cc2ccccc2)C(=O)N[C@@H](Cc2ccccc2)C(=O)N[C@@H](CCCCN)C(=O)N[C@@H](CO)C(=O)N[C@@H](Cc2ccccc2)C(=O)N[C@@H](CCCNC(=N)N)C(=O)N[C@@H](CCCNC(=N)N)C(=O)N[C@@H](C)C(=O)N[C@@H](Cc2ccccc2)C(=O)N[C@@H](CCCCN)C(=O)N[C@@H](CCCCN)C(=O)N[C@@H](Cc2ccccc2)C(N)=O)NC(=O)[C@@H]2CCCN2C(=O)[C@H](CCCCN)NC(=O)[C@@H]2CCCN2C(=O)[C@@H]2CCCN2C1=O` [TIH3F] (H-CWTKSIPPKPCKFFKRFFKSFRRAFKKF-NH2; disulfide 1-11), the “MIC Vibrio Parahaemolyticus” value (Vibrio Parahaemolyticus) is reported as 4.69 µg/mL (≈ 1.32 µM), the “time of killing toward E. coli” value (E. coli 08040726; 1xMIC) is reported as at most 2 h and the “time of killing toward E. coli” value (E. coli 08040726; 5xMIC) is reported as at most 0.5 h. For the same molecule, the “antimicrobial activity (kill %) in presence of salt” value (E. coli ATCC25922 [1]; 50 mM NaCl, colony counting) was “not affected”, the “kill (%) in presence of salt” value (E. coli ATCC25922 [1]; NaCl increased from 100 mM up to 200 mM) was “declined by half” and the “killing effect in presence of salt” value (E. coli ATCC25922 [1]; NaCl raised from 100 mM to 400 mM) was “decreased by half”. For the same molecule, the “antimicrobial activity after incubation at 37 °C” value (E. coli ATCC25922 [2]) was “maintained its potent antimicrobial activity”.

Reference: article PMC5453931, “Cathelicidin-trypsin inhibitor loop conjugate represents a promising antibiotic candidate with protease stability” (Scientific Reports, 2017)
